Like-named read-outs stand apart in the source and are kept apart here.
Columns and labels:
[1] = 7.3 Pharmacokinetic characterization, single or repeated oral administration, cynomolgus monkeys; details: cynomolgus monkey, in vivo, PO dosing in NHP
Source text: 7.3 Pharmacokinetic Characterization of Compound A following Single or Repeated Oral Administrations to Male and Female Cynomolgus Monkeys
The objective of this study is to determine the pharmacokinetics of Compound A following single or repeated oral administrations of Compound A in male and female cynomolgus monkeys. The test article will be measured in plasma at selected time points for up to 14 days post dosing.
Formulation: 10% HP-β-CD in water at pH 3.5 (w/v) in water at pH 3.5 (w/v) • Prepare the 10% HP-β-CD vehicle on a (w/v) basis • Add compound with stirring. • Heat to ˜50 C for 10 minutes. […]
LC-MS/MS method development: • 1. A LC-MS/MS method for the quantitative determination of test compound in biological matrix will be developed under non-GLP compliance. • 2. […] N in 1 cassette LC-MS/MS method can be developed for samples coming from different studies as long as these studies belong to same sponsor and the interference among all cassette analytes will be evaluated during the method development. • 5. […] If such kind cassette assay is still requested by the study sponsor, interference between analytes will not be evaluated but the LC separation of those analytes by using a generic method will be tried. […] Biological sample in matrix other than plasma can be diluted with plasma first and then quantified against plasma calibration curve. […]

lymphocytes = experiment: Lymphopenia studies (Example 8, FIG. 5); format: in vivo

Question: For CC(C)(O)c1cc2nc([C@H]3CC[C@H](CN4CC5(CC(CCNc6cccc7c6C(=O)N(C6CCC(=O)NC6=O)C7=O)C5)C4)CC3)sc2cc1NC(=O)c1cccc(C(F)(F)F)n1 (stereo partly drawn) [Compound A, N-(2-((1r,4r)-4-((6-(2-((2-(2,6-dioxopiperidin-3-yl)-1,3-dioxoisoindolin-4-yl)amino)ethyl)-2-azaspiro[3.3]heptan-2-yl)methyl)cyclohexyl)-5-(2-hydroxypropan-2-yl)benzo[d]thiazol-6-yl)-6-(trifluoromethyl)picolinamide], which Target AUC0-168 exposure range ([1]; schedule D1, D4, read-out: Target exposure Range (Ly10-DHL2) AUC0-168) is on record?
Answer: The Target AUC0-168 exposure range was 7 to 18 µM·h.

Question: And the Target AUC0-168 exposure range ([1]; schedule D1, read-out: Target exposure Range (Ly10-DHL2) AUC0-168)?
Answer: The Target AUC0-168 exposure range was 18 to 54 µM·h.

Question: What about the Lymphocyte declines (lymphocytes; IV) of the same compound?
Answer: Its Lymphocyte declines is “Lymphocyte declines are transient”.

Question: What about the Lymphocyte declines (lymphocytes; PO) of the same compound?
Answer: The Lymphocyte declines was “Lymphocyte declines are transient”.

Question: And the “Lymphopenia on intermittent dosing” value (lymphocytes; intermittent dosing)?
Answer: The value was “transient”.

Question: And the “Lymphopenia: recovery by day” value (lymphocytes; intermittent dosing)?
Answer: Its value is 7-14 D.

From patent US11857535B2, “Methods of treating mutant lymphomas” (Kymera Therapeutics, Inc., priority 2020, dated 2024)
